Data on one molecule can be found in US5849753A, “Pyridyl imidazole derivatives and processes for the preparation thereof” (Korea Research Institute of Chemical Technology, priority 1994, dated 1998).

The subject of series [1] is renal hypertensive rat. The series can be described thus: Blood pressure lowering effect on oral administration to rats at several doses. Type of series: in vivo, male Sprague-Dawley rats.
For series [2], the system named is unanesthetized dogs. The series can be described thus: Blood pressure lowering effect in unanesthetized dogs (furosemide treated). Type of series: in vivo, dog. Further details: Maximum blood pressure lowering effect in a dog: unit not given here. Conditions: oral; for Blood pressure variation with time: dogs, 1.0 mg.
Series [3] can be described thus: Metabolite analysis (enzyme digestion test). Type of series: in vitro ADME, male rats. Conditions: rat liver microsome and NADPH, 1 hour, 37° C. As to the method: Enzyme digestion test was executed in order to detect the metabolite of the test compound in vivo.
A liver microsome and NADPH system of male rats were added to each of the present compound(Example 8) and the control compound(Merck), and the mixture was incubated for 1 hour at 37° C. The resultant was extracted with methanol or dichloromethane, and, thereafter, the organic layer was evaporated to obtain a residue. The residue was analyzed using high pressure liquid chromatography.

For `CCCCc1nc2cc(-c3ccccn3)c(C(OC)OC)nc2n1Cc1ccc(-c2ccccc2-c2nnn[nH]2)cc1` [Example 8, 2-butyl-5-dimethoxymethyl-6-(pyridin-2-yl)-3-[2'-(1H-tetrazol-5-yl)-biphenyl-4-ylmethyl]-3H-imidazo[4,5-b]pyridine], the “blood pressure lowering effect” value was 32% in series [1] (1 mg/kg) and 35-37% in series [1] (3 mg/kg). In addition, the “Maximum blood pressure lowering effect in a dog” value in series [2] (0.1 mg/kg) is on record as 17; in series [2] (0.3 mg/kg), 32; in series [2] (1 mg/kg) it was 34. The “Blood pressure variation with time” value in series [2] (0.5 hr) is -32.7%; in series [2] (1 hr) it was -29.9%; in series [2] (2 hr), -33.0%; in series [2] (4 hr), -26.8%; in series [2] (6 hr), -25.0%; in series [2] (8 hr), -19.7%. For the same molecule, in series [3] (HPLC), the “metabolite from the enzymatic digestion” value is on record as “no metabolite”. For the same molecule, the “stability against the enzymatic digestion” value in series [3] (in contrast with the Merck compound) is on record as “good stability”.
